The values that follow come from patent US8377955B2, “Branched 3- and 6-substituted quinolines as CGRP receptors antagonists” (Merck, Sharp & Dohme, Corp., priority 2008, dated 2013).

Where two headings read alike, the source gives them in different places. No end group written: not given here.

The target of one assay is T1, Human CGRP receptor (Homo sapiens, UniProt O60894+Q16602).
T1 construct: expressed in transfected cells; membranes
Nature of the assay: Human CGRP receptor binding (125I-CGRP displacement). The procedure: NATIVE RECEPTOR BINDING ASSAY: The binding of ^125I-CGRP to receptors in SK-N-MC cell membranes was carried out essentially as described (Edvinsson et al. (2001) Eur. J. Pharmacol. 415, 39-44). Briefly, membranes (25 μg) were incubated in 1 mL of binding buffer [10 mM HEPES, pH 7.4, 5 mM MgCl2 and 0.2% bovine serum albumin (BSA)] containing 10 pM ^125I-CGRP and antagonist. After incubation at room temperature for 3 h, the assay was terminated by filtration through GFB glass fibre filter plates (PerkinElmer) that had been blocked with 0.5% polyethyleneimine for 3 h. The filters were washed three times with ice-cold assay buffer (10 mM HEPES, pH 7.4 and 5 mM MgCl2), then the plates were air dried. Scintillation fluid (50 μL) was added and the radioactivity was counted on a Topcount (Packard Instrument). Data analysis was carried out by using Prism and the Ki was determined by using the Cheng-Prusoff equation (Cheng & Prusoff (1973) Biochem. Pharmacol. 22, 3099-3108).
RECOMBINANT RECEPTOR: Human CL receptor (Genbank accession number L76380) was subcloned into the expression vector pIREShyg2 (BD Biosciences Clontech) as a 5′NheI and 3′ PmeI fragment. Human RAMP1 (Genbank accession number AJ001014) was subcloned into the expression vector pIRESpuro2 (BD Biosciences Clontech) as a 5′NheI and 3′NotI fragment. HEK 293 cells (human embryonic kidney cells; ATCC #CRL-1573) were cultured in DMEM with 4.5 g/L glucose, 1 mM sodium pyruvate and 2 mM glutamine supplemented with 10% fetal bovine serum […], 100 units/mL penicillin and 100 μg/mL streptomycin, and maintained at 37° C. and 95% humidity. Cells were subcultured by treatment with 0.25% trypsin with 0.1% EDTA in HBSS. Stable cell line generation was accomplished by co-transfecting 10 μg of DNA with 30 μg Lipofectamine 2000 (Invitrogen) in 75 cm^2 flasks. CL receptor and RAMP1 expression constructs were co-transfected in equal amounts. Twenty-four hours after transfection the cells were diluted and selective medium (growth medium+300 μg/mL hygromycin and 1 μg/mL puromycin) was added the following day. A clonal cell line was generated by single cell deposition utilizing a FACS Vantage SE (Becton Dickinson). Growth medium was adjusted to 150 μg/mL hygromycin and 0.5 μg/mL puromycin for cell propagation.
RECOMBINANT RECEPTOR BINDING ASSAY: Cells expressing recombinant human CL receptor/RAMP1 were washed with PBS and harvested in harvest buffer containing 50 mM HEPES, 1 mM EDTA and Complete protease inhibitors (Roche). The cell suspension was disrupted with a laboratory homogenizer and centrifuged at 48,000 g to isolate membranes. The pellets were resuspended in harvest buffer plus 250 mM sucrose and stored at −70° C. For binding assays, 20 μg of membranes were incubated in 1 ml binding buffer (10 mM HEPES, pH 7.4, 5 mM MgCl2, and 0.2% BSA) for 3 hours at room temperature containing 10 pM ^125I-hCGRP (GE Healthcare) and antagonist. The assay was terminated by filtration through 96-well GFB glass fiber filter plates (PerkinElmer) that had been blocked with 0.05% polyethyleneimine. […]
[formula] Where Y is observed CPM bound, Ymax is total bound counts, Ymin is non specific bound counts, (Ymax−Ymin) is specific bound counts, % Imax is the maximum percent inhibition, % I min is the minimum percent inhibition, radiolabel is the probe, and the Kd is the apparent dissociation constant for the radioligand for the receptor as determined by Hot saturation experiments.

For assay [1], the system named is headache induced by CGRP infusion. The note with it: control group (Petersen et al. 2005); cited from earlier work.
Assay [2] concerns facial blood flow. As to conditions: marmoset, electrical stimulation of the trigeminal ganglion (Dodds et al. 2000); cited from earlier work.
In assay [3] the test system is acute attacks of migraine. The note with it: clinical trials (Olesen et al. 2004); cited from earlier work.
The next assay concerns middle meningeal artery. As to conditions: rats, electrical stimulation of the dura mater, prior administration (Williamson et al. 1997); cited from earlier work.
For assay [4], the system named is facial blood flow. The note with it: rat, trigeminal ganglion stimulation (Escott et al. 1995); cited from earlier work.
The mark [5] stands for this setting: read-out: Human CGRP receptor binding Ki.
Setting [6] is: table of Examples 32-37, read-out: Ki.

T1 sequence (Q16602 23-461): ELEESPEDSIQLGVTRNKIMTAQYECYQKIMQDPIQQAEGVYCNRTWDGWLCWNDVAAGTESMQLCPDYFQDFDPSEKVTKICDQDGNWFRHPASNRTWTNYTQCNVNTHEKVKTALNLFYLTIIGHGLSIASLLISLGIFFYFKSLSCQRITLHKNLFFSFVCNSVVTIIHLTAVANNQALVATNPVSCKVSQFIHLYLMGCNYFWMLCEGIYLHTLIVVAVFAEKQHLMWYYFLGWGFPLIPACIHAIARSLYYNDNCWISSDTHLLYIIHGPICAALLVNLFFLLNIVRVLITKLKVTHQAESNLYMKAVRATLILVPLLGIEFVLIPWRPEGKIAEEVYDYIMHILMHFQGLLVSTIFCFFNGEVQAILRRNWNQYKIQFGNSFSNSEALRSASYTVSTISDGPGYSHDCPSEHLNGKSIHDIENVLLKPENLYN
T1 sequence (O60894 27-148): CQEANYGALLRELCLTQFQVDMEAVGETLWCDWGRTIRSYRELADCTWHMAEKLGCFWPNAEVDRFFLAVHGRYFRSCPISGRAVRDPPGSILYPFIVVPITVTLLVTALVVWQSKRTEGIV

Turning to `CC(c1cc(F)cc(F)c1)N(Cc1cnc2cc3c(cc2c1)C[C@@]1(C3)C(=O)Nc2ncccc21)C(=O)C1CCOCC1` (stereo in doubt) [Example 1, N-[(1R)-1-(3,5-Difluorophenyl)ethyl]-N-{[(7S)-2′-oxo-1′,2′,6,8-tetrahydrospiro-[cyclopenta[g]quinoline-7,3′-pyrrolo[2,3-b]pyridin]-3-yl]methyl}tetrahydro-2H-pyran-4-carboxamide], the Ki (as a rule, the dissociation constant of the complex between target and ligand, obtained from inhibition or displacement) on Human CGRP receptor (setting [5]) stood at 0.05 nM.
For the compound `NCCCC[C@H](NC(=O)[C@@H](Cc1cc(Br)c(O)c(Br)c1)NC(=O)N1CCC(N2Cc3ccccc3NC2=O)CC1)C(=O)N1CCN(c2ccncc2)CC1` [BIBN4096BS], in assay [1], the “prevention of headache induced by CGRP infusion” value was “able to prevent headache induced by CGRP infusion”. Also, in the assay with facial blood flow [2], the “effect on increase in facial blood flow” value is reported as “blocked”. Further, the “efficacy in treating acute attacks of migraine” value in assay [3] is “effective in treating acute attacks of migraine”.
For `CCOC(=O)CN(Cc1ccccc1)C(=O)c1cnc2cc3c(cc2c1)C[C@@]1(C3)C(=O)Nc2ncccc21` [Example 2, Ethyl(benzyl{[(7S)-2′-oxo-1′,2′,6,8-tetrahydrospiro[cyclopenta[g]quinoline-7,3′-pyrrolo[2,3-b]pyridin]-3-yl]carbonyl}amino)acetate], the inhibitory constant (Ki) at Human CGRP receptor (setting [5]) stood at 60 nM.
Regarding `CC(C)(C)OC(=O)[C@H](NC(=O)c1cnc2cc3c(cc2c1)C[C@@]1(C3)C(=O)Nc2ncccc21)c1ccccc1` [Example 33], the inhibitory constant (Ki) at Human CGRP receptor (setting [6]) was 120 nM.
Regarding `CC(C)(C)OC(=O)[C@@H](NC(=O)c1cnc2cc3c(cc2c1)C[C@@]1(C3)C(=O)Nc2ncccc21)c1ccccc1` [Example 34], the Ki on Human CGRP receptor (setting [6]) stood at 140 nM.
`CC(C)(C)OC(=O)CC(NC(=O)c1cnc2cc3c(cc2c1)C[C@@]1(C3)C(=O)Nc2ncccc21)c1ccccc1` (stereo partly shown) [Example 36]: at Human CGRP receptor (setting [6]), the inhibition constant (Ki) amounted to 76 nM.
With “CGRP (8-37): a peptide CGRP antagonist; fragment of CGRP that lacks seven N-terminal amino acid residues (VTHRLAGLLSRSGGVVKNNFVPTNVGSKAF; ends and bridges not checked; UniProt P06881 90-119, looked up, fragment)”, in the assay on middle meningeal artery, the “effect on increase in diameter of the middle meningeal artery” value is “blocked”. In addition, the “effect on increased facial blood flow” value in the assay on facial blood flow [4] was “inhibited”.
